Series [1] deals with Rat. The experiment in a line: concentration in plasma after dosing. Conditions: 2.5 min; dosed: Wyeth-14643; 2.0 mg/kg; iv; Male; Sprague-Dawley.
The test system of series [2] is Rat. The experiment in a line: concentration in plasma after dosing. Conditions: 4 h; dosed: Bis 2-Chloroethoxy Methane; 40 mg/kg; iv; Male; Harlan Sprague Dawley.
The subject of series [3] is Rat. The experiment in a line: concentration in liver after dosing. Conditions: 4 h; dosed: Bis 2-Chloroethoxy Methane; 20 mg/kg; iv; Male; F344.
Series [4] relates to Rat. The experiment in a line: concentration in liver after dosing. As to conditions: 5 h; dosed: Bis 2-Chloroethoxy Methane; 20 mg/kg; iv; Male; F344.
The subject of series [5] is Rat. The experiment in a line: concentration in plasma after dosing. As to conditions: 10 min; dosed: Bis 2-Chloroethoxy Methane; 20 mg/kg; iv; Female; F344.
For series [6], the system named is Rat. In words: concentration in plasma after dosing. Conditions: 40 min; dosed: Bis 2-Chloroethoxy Methane; 20 mg/kg; iv; Male; F344.
Series [7] relates to Rat. In words: concentration in thymus after dosing. As to conditions: 40 min; dosed: Bis 2-Chloroethoxy Methane; 20 mg/kg; iv; Female; F344.
The subject of series [8] is Rat. In words: concentration in heart after dosing. As to conditions: 6 h; dosed: Bis 2-Chloroethoxy Methane; 20 mg/kg; iv; Female; F344.
Series [9] concerns Rat. The experiment in a line: concentration in liver after dosing. As to conditions: 20 min; dosed: Bis 2-Chloroethoxy Methane; 20 mg/kg; iv; Male; F344.
Series [10] relates to Rat. In words: concentration in plasma after dosing. As to conditions: 1 h; dosed: Bis 2-Chloroethoxy Methane; 40 mg/kg; iv; Male; Harlan Sprague Dawley.
Series [11] relates to Rat. In words: concentration in plasma after dosing. Conditions: 4 h; dosed: Bis 2-Chloroethoxy Methane; 40 mg/kg; iv; Male; Harlan Sprague Dawley. This is another data set of the same source.
For series [12], the system named is Rat. The experiment in a line: concentration in plasma after dosing. As to conditions: 3 h; dosed: Bis 2-Chloroethoxy Methane; 20 mg/kg; iv; Male; F344.
Series [13] has as its system Rat. The experiment in a line: concentration in plasma after dosing. Conditions: dosed: Fluorotelomer alcohol 8+2, 12 mg/kg, iv, Male, F344.
Series [14] deals with Rat. The experiment in a line: concentration in kidney after dosing. As to conditions: 3 h; dosed: Fluorotelomer alcohol 8+2; 24 mg/kg; oral; Male; Harlan Sprague Dawley.
Series [15] concerns Rat. In words: concentration in kidney after dosing. Conditions: 0.5 h; dosed: Fluorotelomer alcohol 8+2; 24 mg/kg; oral; Male; Harlan Sprague Dawley.
For series [16], the system named is Rat. The experiment in a line: concentration in kidney after dosing. Conditions: 1 h; dosed: Fluorotelomer alcohol 8+2; 24 mg/kg; oral; Male; Harlan Sprague Dawley.
Series [17] deals with Rat. In words: concentration in plasma after dosing. Conditions: 40 min; dosed: Di-n-butyl phthalate; 20 mg/kg; iv; Male; Sprague-Dawley.
Series [18] relates to Rat. In words: concentration in plasma after dosing. As to conditions: 2 h; dosed: Di-n-butyl phthalate; 50 mg/kg; oral; Male; Sprague-Dawley.
The test system of series [19] is Rat. The experiment in a line: concentration in plasma after dosing. As to conditions: 2 h; dosed: Di-n-butyl phthalate; 100 mg/kg; oral; Male; Sprague-Dawley.
In series [20] the test system is Rat. In words: concentration in plasma after dosing. As to conditions: dosed: Perfluorodecanoic acid, 2 mg/kg, iv, Male, F344.
The subject of series [21] is Rat. The experiment in a line: concentration in plasma after dosing. Conditions: dosed: Perfluorodecanoic acid, 2 mg/kg, iv, Male, F344. This is another data set of the same source.
The test system of series [22] is Rat. The experiment in a line: concentration in brain after dosing. As to conditions: 1848 h; dosed: Perfluorodecanoic acid; 10 mg/kg; oral; Male; Harlan Sprague Dawley.
Series [23] has as its system Rat. In words: concentration in kidney after dosing. Conditions: 864 h; dosed: Perfluorodecanoic acid; 10 mg/kg; oral; Male; Harlan Sprague Dawley.
Series [24] deals with Rat. The experiment in a line: concentration in liver after dosing. Conditions: 864 h; dosed: Perfluorodecanoic acid; 10 mg/kg; oral; Male; Harlan Sprague Dawley.
In series [25] the test system is Rat. The experiment in a line: concentration in plasma after dosing. Conditions: 3 h; dosed: Primidone; 80 mg/kg; oral; Male; F344.
Series [26] relates to Rat. The experiment in a line: concentration in plasma after dosing. Conditions: 3 h; dosed: Primidone; 30 mg/kg; oral; Male; F344.
Series [27] relates to Rat. The experiment in a line: concentration in plasma after dosing. Conditions: 9 h; dosed: Primidone; 80 mg/kg; oral; Male; F344.
Series [28] concerns Rat. In words: concentration in heart after dosing. Conditions: 5.333 h; dosed: Thiodiglycolic Acid; 20 mg/kg; iv; Male; Harlan Sprague Dawley.
In series [29] the test system is Rat. In words: concentration in liver after dosing. As to conditions: 10 min; dosed: Thiodiglycolic Acid; 20 mg/kg; iv; Male; F344.
Series [30] concerns Rat. In words: concentration in thymus after dosing. Conditions: 3 h; dosed: Thiodiglycolic Acid; 20 mg/kg; iv; Female; Harlan Sprague Dawley.
The subject of series [31] is Rat. The experiment in a line: concentration in thymus after dosing. Conditions: 2 h; dosed: Thiodiglycolic Acid; 20 mg/kg; iv; Male; Harlan Sprague Dawley.
For series [32], the system named is Rat. The experiment in a line: concentration in liver after dosing. Conditions: 10 h; dosed: Thiodiglycolic Acid; 20 mg/kg; iv; Male; F344.
Series [33] concerns Rat. In words: concentration in thymus after dosing. Conditions: 1 h; dosed: Thiodiglycolic Acid; 20 mg/kg; iv; Male; Harlan Sprague Dawley.
Series [34] deals with Rat. The experiment in a line: concentration in liver after dosing. As to conditions: 4 h; dosed: Thiodiglycolic Acid; 20 mg/kg; iv; Female; Harlan Sprague Dawley.
For series [35], the system named is Rat. The experiment in a line: concentration in plasma after dosing. Conditions: 20 min; dosed: dichloroacetic acid; 10 mg/kg; oral; Male; Harlan Sprague Dawley.
Series [36] relates to Rat. In words: concentration in plasma after dosing. As to conditions: dosed: dichloroacetic acid, 40 mg/kg, oral, Female, Harlan Sprague Dawley.
The subject of series [37] is Rat. The experiment in a line: concentration in plasma after dosing. Conditions: 20 min; dosed: dichloroacetic acid; 10 mg/kg; oral; Male; Harlan Sprague Dawley. This is another data set of the same source.
For series [38], the system named is Rat. The experiment in a line: concentration in plasma after dosing. Conditions: dosed: dichloroacetic acid, 40 mg/kg, oral, Female, Harlan Sprague Dawley. The source holds these as a separate data set.

In turn, `Cc1cccc(Nc2cc(Cl)nc(SCC(=O)O)n2)c1C` registered a concentration in plasma with Rat [1] of 29300 ng/mL.

Turning to `ClCCOCOCCCl` [Bis 2-Chloroethoxy Methane], the concentration in plasma in the series with Rat [2] was 238 ng/mL; in the series with Rat [5], 9960 ng/mL; in the series with Rat [6], 1590 ng/mL; in the series on Rat [10], 3100 ng/mL; in the series with Rat [11] it was 162 ng/mL; with Rat [12], 90.6 ng/mL. The values for the concentration in liver in the series with Rat [3], in the series with Rat [4] and in the series with Rat [9] were 86.1 ng/g, 33.4 ng/g and 3690 ng/g, respectively. Moreover, the concentration in thymus in the series on Rat [7] was 4150 ng/g. For the same compound, the concentration in heart in the series on Rat [8] worked out at 33.8 ng/g.

For `OCCC(F)(F)C(F)(F)C(F)(F)C(F)(F)C(F)(F)C(F)(F)C(F)(F)C(F)(F)F` [Fluorotelomer alcohol 8+2], the concentration in plasma with Rat [13] (0.75 h) is 756 ng/mL; with Rat [13] (12 h), 13.3 ng/mL. The values for the concentration in kidney with Rat [14], in the series with Rat [15] and in the series with Rat [16] were 985 ng/g, 1800 ng/g and 1140 ng/g, respectively.

Consider `CCCCOC(=O)c1ccccc1C(=O)O` [Mono-n-butyl phthalate], for which the concentration in plasma was 8270 ng/mL in the series with Rat [17], 3690 ng/mL in the series with Rat [18] and 3520 ng/mL in the series on Rat [19].

On to `O=C(O)C(F)(F)C(F)(F)C(F)(F)C(F)(F)C(F)(F)C(F)(F)C(F)(F)C(F)(F)C(F)(F)F` [Perfluorodecanoic acid], for which the concentration in plasma stood at 5820 ng/mL in the series on Rat [20] (24 h), 764 ng/mL in the series on Rat [20] (1848 h), 6240 ng/mL in the series with Rat [21] (6 h) and 2140 ng/mL in the series with Rat [21] (864 h). The compound further registered a concentration in brain in the series with Rat [22] of 531 ng/g. In addition, the concentration in kidney with Rat [23] worked out at 10600 ng/g. For the same compound, in the series with Rat [24], the concentration in liver is 47900 ng/g.

For `CCC1(c2ccccc2)C(=O)NC(=O)NC1=O` [Phenobarbital], the figures for the concentration in plasma in the series with Rat [25], with Rat [26] and in the series with Rat [27] were 5240 ng/mL, 2460 ng/mL and 6800 ng/mL, respectively.

Consider `O=C(O)CSCC(=O)O` [Thiodiglycolic Acid], for which the concentration in heart in the series on Rat [28] came out at 383 ng/g. The concentration in liver with Rat [29] came out at 160000 ng/g; in the series with Rat [32] it was 7350 ng/g; in the series with Rat [34], 7460 ng/g. In addition, the values for the concentration in thymus in the series with Rat [30], in the series with Rat [31] and in the series with Rat [33] were 2120 ng/g, 2260 ng/g and 2310 ng/g, respectively.

On to `O=C(O)C(Cl)Cl` [dichloroacetic acid], for which the concentration in plasma is 680 ng/mL in the series with Rat [35]; 8110 ng/mL in the series with Rat [36] (20 min); 2680 ng/mL in the series on Rat [36] (2 h); 291 ng/mL with Rat [37]; 5140 ng/mL in the series with Rat [38] (5 min); 4620 ng/mL with Rat [38] (1.25 h).
